Laboratory results taken from patent US20220033407A1, “N-(pyridin-2-ylsulfonyl)cyclopropanecarboxamide Derivatives and their Use in the Treatment of Disease” (NOVARTIS AG, priority 2018, published 2022).

Target: T1, delF508-CFTR-HRP (Homo sapiens, UniProt P13569, DEL508-508)
T1 construct: expressed in transfected cells
Experiment: Measurement of delF508-CFTR-HRP surface expression in CFBE41o- cells (HRP luminescence);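 for DelF508-CFTR-HRP Amax %: percent efficacy relative to a reference CFTR corrector compound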
Assay type: cell-based
Conditions: for Emax: CFBE41o-, read-out: DelF508-CFTR-HRP Amax %; for EC50: mean of at least two replicates
How it was run: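 EC50 derived by logistic regression of triplicate surface-HRP luminescence, plate-normalized to the lowest-concentration median. Doxycycline (500 ng/mL, 48 h) induced delF508-CFTR-HRP in CFBE41o- cells; compounds then applied 24 h at 37° C, 10 μM top, 3-fold over 10 points.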

T1 sequence (P13569 with tags, fused parts or gaps DEL508-508): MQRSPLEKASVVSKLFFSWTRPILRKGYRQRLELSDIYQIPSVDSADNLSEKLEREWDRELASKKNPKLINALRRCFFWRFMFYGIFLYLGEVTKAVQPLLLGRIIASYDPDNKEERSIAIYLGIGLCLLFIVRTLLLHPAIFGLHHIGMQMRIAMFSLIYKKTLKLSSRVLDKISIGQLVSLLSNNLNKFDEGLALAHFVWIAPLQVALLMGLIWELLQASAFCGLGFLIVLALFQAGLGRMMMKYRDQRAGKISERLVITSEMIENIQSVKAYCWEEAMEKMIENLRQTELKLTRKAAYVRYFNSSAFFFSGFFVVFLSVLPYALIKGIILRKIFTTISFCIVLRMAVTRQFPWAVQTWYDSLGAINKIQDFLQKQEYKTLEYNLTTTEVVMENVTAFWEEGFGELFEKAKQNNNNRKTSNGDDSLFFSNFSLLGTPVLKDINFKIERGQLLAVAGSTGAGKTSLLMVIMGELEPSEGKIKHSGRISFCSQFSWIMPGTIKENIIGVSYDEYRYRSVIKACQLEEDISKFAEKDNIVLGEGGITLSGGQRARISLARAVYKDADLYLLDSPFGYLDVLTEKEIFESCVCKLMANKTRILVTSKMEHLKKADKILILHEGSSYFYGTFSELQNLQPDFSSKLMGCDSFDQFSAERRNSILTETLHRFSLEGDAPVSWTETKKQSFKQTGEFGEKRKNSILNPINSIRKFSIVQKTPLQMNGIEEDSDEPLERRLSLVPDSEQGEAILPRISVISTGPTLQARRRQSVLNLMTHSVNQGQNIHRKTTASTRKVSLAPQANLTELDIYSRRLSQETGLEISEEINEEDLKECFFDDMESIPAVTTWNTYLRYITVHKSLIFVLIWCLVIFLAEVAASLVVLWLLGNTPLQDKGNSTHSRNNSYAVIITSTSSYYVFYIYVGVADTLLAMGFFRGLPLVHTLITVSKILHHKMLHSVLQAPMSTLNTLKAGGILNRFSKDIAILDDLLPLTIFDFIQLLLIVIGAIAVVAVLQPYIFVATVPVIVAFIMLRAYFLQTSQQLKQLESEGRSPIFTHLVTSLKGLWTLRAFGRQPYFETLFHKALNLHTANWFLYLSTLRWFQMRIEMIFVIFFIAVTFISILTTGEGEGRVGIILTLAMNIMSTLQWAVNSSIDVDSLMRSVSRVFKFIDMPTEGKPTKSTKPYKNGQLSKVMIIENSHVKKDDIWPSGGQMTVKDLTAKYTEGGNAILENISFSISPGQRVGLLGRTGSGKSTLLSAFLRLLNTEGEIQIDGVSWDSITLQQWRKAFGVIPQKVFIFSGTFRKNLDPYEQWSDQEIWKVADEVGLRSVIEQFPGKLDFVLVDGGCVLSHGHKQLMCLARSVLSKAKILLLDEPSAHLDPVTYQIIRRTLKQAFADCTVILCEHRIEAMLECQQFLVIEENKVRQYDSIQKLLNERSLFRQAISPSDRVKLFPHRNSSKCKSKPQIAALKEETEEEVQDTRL

Structure (SMILES) | Emax [%] | EC50 [nM] | DelF508-CFTR-HRP Amax % [%]
Cc1ccc(C2CCC(C)(C)OC2)c(OC2(C(=O)NS(=O)(=O)c3cccc(N4CC[C@H](O)C4)n3)CC2)c1 (single isomer, unassigned) [Example 4-24-2] |  | 3000 | 249
O=C(NS(=O)(=O)c1cccc(N2CC3(CCO3)C2)n1)C1(Oc2cc(Cl)ccc2C2CC3(CCC3)C2)CC1 [Example 7-5, N-((6-(1-oxa-6-azaspiro[3.3]heptan-6-yl)pyridin-2-yl)sulfonyl)-1-(5-chloro-2-(spiro[3.3]heptan-2-yl)phenoxy)cyclopropanecarboxamide] | 493 | 880 | 
CC1(O)CCN(c2cccc(S(=O)(=O)NC(=O)C3(Oc4cc(Cl)ccc4C4CC5(CCC5)C4)CCCC3)n2)C1 (single isomer, unassigned) [Example 7-18-2, 1-(5-Chloro-2-(spiro[3.3]heptan-2-yl)phenoxy)-N-((6-(3-hydroxy-3-methylpyrrolidin-1-yl)pyridin-2-yl)sulfonyl)cyclopentane-1-carboxamide] |  | 1670 | 371.9
Cc1ccc(C2CC2C(F)(F)F)c(OC2(C(=O)NS(=O)(=O)c3cccc(N)n3)CC2)c1 (single isomer, unassigned) [Example 1-3-1, N-((6-aminopyridin-2-yl)sulfonyl)-1-(5-methyl-2-(2-(trifluoromethyl)cyclopropyl)phenoxy)cyclopropane-1-carboxamide] |  | 4180 | 65
CC(C)COc1cccc(-c2ccc(Cl)cc2OC2(C(=O)NS(=O)(=O)c3cccc(N4CCC(C)(C#N)CC4)n3)CC2)c1 [Example 5-3, 1-((4-Chloro-3′-isobutoxy-[1,1′-biphenyl]-2-yl)oxy)-N-((6-(4-cyano-4-methylpiperidin-1-yl)pyridin-2-yl)sulfonyl)cyclopropane-1-carboxamide] | 286 | 750 | 
O=C(NS(=O)(=O)c1cccc(N2CC3CCC(C2)O3)n1)C1(Oc2cc(Cl)ccc2C2CC3(CCC3)C2)CC1 [Example 7-16, N-((6-(8-Oxa-3-azabicyclo[3.2.1]octan-3-yl)pyridin-2-yl)sulfonyl)-1-(5-chloro-2-(spiro[3.3]heptan-2-yl)phenoxy)cyclopropane-1-carboxamide] | 381 | 1240 | 
Cc1ccc(OCC(C)C)c(OC2(C(=O)NS(=O)(=O)c3cccc(N4CC[C@H](O)C4)n3)CC2)c1 [Example 6-15, (S)—N-((6-(3-hydroxypyrrolidin-1-yl)pyridin-2-yl)sulfonyl)-1-(2-isobutoxy-5-methylphenoxy)cyclopropanecarboxamide] | 215 | 2940 | 
Cc1ccc(C2CC(F)(F)C2)c(OC2(C(=O)NS(=O)(=O)c3cccc(N4CC(C)(O)C4)n3)CC2)c1 [Example 4-3, 1-(2-(3,3-Difluorocyclobutyl)-5-methylphenoxy)-N-((6-(3-hydroxy-3-methylazetidin-1-yl)pyridin-2-yl)sulfonyl)cyclopropanecarboxamide] | 158 | 4520 | 
Cc1ccc(OC2CCCC2)c(OC2(C(=O)NS(=O)(=O)c3cccc(N4CCC(C)(C#N)CC4)n3)CC2)c1 [Example 6-2, N-((6-(4-cyano-4-methylpiperidin-1-yl)pyridin-2-yl)sulfonyl)-1-(2-(cyclopentyloxy)-5-methylphenoxy)cyclopropanecarboxamide] | 289 | 2180 | 
CC1(O)CCN(c2cccc(S(=O)(=O)NC(=O)C3(Oc4cc(Cl)ccc4C4CC5(CCC5)C4)CCCC3)n2)C1 (single isomer, unassigned) [Example 7-18-1, 1-(5-Chloro-2-(spiro[3.3]heptan-2-yl)phenoxy)-N-((6-(3-hydroxy-3-methylpyrrolidin-1-yl)pyridin-2-yl)sulfonyl)cyclopentane-1-carboxamide] |  | 900 | 493.9
O=C(NS(=O)(=O)c1cccc(N2CC[C@H](O)C2)n1)C1(Oc2cc(Cl)ccc2C2CC3(CCC3)C2)CCCC1 [Example 7-20, (S)-1-(5-Chloro-2-(spiro[3.3]heptan-2-yl)phenoxy)-N-((6-(3-hydroxypyrrolidin-1-yl)pyridin-2-yl)sulfonyl)cyclopentane-1-carboxamide] | 280 | 540 | 
Cc1ccc(C2CCCCC2)c(OC2(C(=O)NS(=O)(=O)c3cccc(N4CCC5(CCCC5N)CC4)n3)CC2)c1 (single isomer, unassigned) [Example 2-32-2, N-((6-(1-Amino-8-azaspiro[4.5]decan-8-yl)pyridin-2-yl)sulfonyl)-1-(2-cyclohexyl-5-methylphenoxy)cyclopropanecarboxamide] |  | 1900 | 283
O=C(NS(=O)(=O)c1cccc(N2CC[C@@H](O)C2)n1)C1(Oc2cc(Cl)ccc2C2CC3(CCC3)C2)CC1 [Example 7-19, (R)-1-(5-Chloro-2-(spiro[3.3]heptan-2-yl)phenoxy)-N-((6-(3-hydroxypyrrolidin-1-yl)pyridin-2-yl)sulfonyl)cyclopropane-1-carboxamide] | 350 | 1050 | 
C=C(c1ccc(F)cc1OC1(C(=O)NS(=O)(=O)c2cccc(N3CCN(c4ccccc4)CC3)n2)CC1)C(F)(F)F [Example 4-18, 1-(5-Fluoro-2-(3,3,3-trifluoroprop-1-en-2-yl)phenoxy)-N-((6-(4-phenylpiperazin-1-yl)pyridin-2-yl)sulfonyl)cyclopropane-1-carboxamide] | 160 | 3390 | 
O=C(NS(=O)(=O)c1cccc(N2CC[C@H](O)C2)n1)C1(Oc2cc(Cl)ccc2-c2ccc(F)c(C(F)(F)F)c2)CC1 [Example 5-7] | 279 | 1380 | 
CC1(O)CCCN(c2cccc(S(=O)(=O)NC(=O)C3(Oc4cc(Cl)ccc4C4CC5(CCC5)C4)CC3)n2)C1 (single isomer, unassigned) [Example 7-8-2, 1-(5-chloro-2-(spiro[3.3]heptan-2-yl)phenoxy)-N-((6-(3-hydroxy-3-methylpiperidin-1-yl)pyridin-2-yl)sulfonyl)cyclopropanecarboxamide] |  | 1020 | 248.0

Further lines, results first:

Emax [%] | EC50 [nM] | DelF508-CFTR-HRP Amax % [%] | Structure (SMILES)
857 | 610 |  | CC1(C)CCCN(c2ccc(Cl)cc2OC2(C(=O)NS(=O)(=O)c3cccc(N4CC[C@](C)(O)C4)n3)CC2)C1 [Example 9-27, (S)-1-(5-Chloro-2-(3,3-dimethylpiperidin-1-yl)phenoxy)-N-((6-(3-hydroxy-3-methylpyrrolidin-1-yl)pyridin-2-yl)sulfonyl)cyclopropanecarboxamide]
265 | 2270 |  | CC1(C)CN(c2ccc(Cl)cc2OC2(C(=O)NS(=O)(=O)c3cccc(N4CC[C@H](O)C4)n3)CC2)CC2(CCCC2)O1 [Example 9-33, (S)-1-(5-Chloro-2-(7,7-dimethyl-6-oxa-9-azaspiro[4.5]decan-9-yl)phenoxy)-N-((6-(3-hydroxypyrrolidin-1-yl)pyridin-2-yl)sulfonyl)cyclopropanecarboxamide]
493 | 600 |  | CC1(C)CCN(c2ccc(Cl)cc2OC2(C(=O)NS(=O)(=O)c3cccc(N4CCC(c5ccccn5)CC4)n3)CC2)CC1 [Example 10-3, 1-(5-chloro-2-(4,4-dimethylpiperidin-1-yl)phenoxy)-N-((6-(4-(pyridin-2-yl)piperidin-1-yl)pyridin-2-yl)sulfonyl)cyclopropanecarboxamide]
181 | 2950 |  | Cc1cnc(N2CCC(C)(C)CC2)c(OC2(C(=O)NS(=O)(=O)c3cccc(N4CC[C@H](O)C4)n3)CC2)c1 [Example 10-11, (S)-1-((2-(4,4-dimethylpiperidin-1-yl)-5-methylpyridin-3-yl)oxy)-N-((6-(3-hydroxypyrrolidin-1-yl)pyridin-2-yl)sulfonyl)cyclopropanecarboxamide]
408 | 1760 |  | O=C(NS(=O)(=O)c1cccc(N2CC[C@H](O)C2)n1)C1(Oc2cc(C(F)(F)F)ccc2N2CC3(CCC3)C2)CC1 [Example 9-25, (S)-1-(2-(2-Azaspiro[3.3]heptan-2-yl)-5-(trifluoromethyl)phenoxy)-N-((6-(3-hydroxypyrrolidin-1-yl)pyridin-2-yl)sulfonyl)cyclopropanecarboxamide]
210 | 2620 |  | CC1(C)CCN(c2ccc(Cl)cc2OC2(C(=O)NS(=O)(=O)c3cccc(N4CCN5C(=O)CCC5C4)n3)CC2)CC1 (centres unmarked) [Example 10-10, 1-(8-chloro-2-(4,4-dimethylpiperidin-1-yl)phenoxy)-N-((6-(6-oxohexahydropyrrolo[1,2-a]pyrazin-2(1H)-yl)pyridin-2-yl)sulfonyl)cyclopropanecarboxamide]
604 | 160 |  | CC1(C)CCCN(c2ccc(Cl)cc2OC2(C(=O)NS(=O)(=O)c3cccc(N4CCC(O)(C(F)(F)F)CC4)n3)CC2)C1 [Example 10-7, 1-(5-chloro-2-(3,3-dimethylpiperidin-1-yl)phenoxy)-N-((6-(4-hydroxy-4-(trifluoromethyl)piperidin-1-yl)pyridin-2-yl)sulfonyl)cyclopropanecarboxamide]
204 | 4040 |  | O=C(NS(=O)(=O)c1cccc(N2CC[C@H](O)C2)n1)C1(Oc2cc(Cl)ccc2N2CC3(CCCCO3)C2)CC1 [Example 9-8, (S)-1-(5-Chloro-2-(5-oxa-2-azaspiro[3.5]nonan-2-yl)phenoxy)-N-((6-(3-hydroxypyrrolidin-1-yl)pyridin-2-yl)sulfonyl)cyclopropanecarboxamide]
590 | 590 |  | CC1(C)CCCN(c2ccc(Cl)cc2OC2(C(=O)NS(=O)(=O)c3cccc(N4CC[C@@](C)(O)C4)n3)CC2)C1 [Example 9-30, (R)-1-(5-Chloro-2-(3,3-dimethylpiperidin-1-yl)phenoxy)-N-((6-(3-hydroxy-3-methylpyrrolidin-1-yl)pyridin-2-yl)sulfonyl)cyclopropanecarboxamide]
